Like-named read-outs stand apart in the source and are kept apart here. Marks after values point to notes of the source that are not given here.
Key:
5-HT2A receptor = target: T1, 5-HT2A receptor (Homo sapiens, UniProt P28223); experiment: Serotonin receptor binding, [3H] Ketanserin, CHO-K1 membranes
T1 construct: expressed in transfected cells; host or cells: CHO-K1
Procedure: (§1) Aliquots of suspended membranes of human recombinant CHO-K1 cells stably expressing human 5-HT1A, 5-HT2A, 5-HT1B, 5-HT2B, 5-HT2C, 5-HT4, 5-HT6 or 5-HT7 receptors were pre-incubated at 25° C. with 1.5 nM [^3H] 8-OH-DPAT (5-HT1A), 1.5 nM [^3H] Ketanserin (5-HT2A), 0.01 nM [^125I] Cyanopindolol (5-HT1B), 1 nM [^3H] Mesulergine (5-HT2c), 0.7 nM [^3H] GR-113808 (5-HT4) or at 37° C. 1.2 nM [^3H] LSD (5-HT2B, 5-HT6 and 5-HT7) in buffer (50 mM Tris-HCl, pH 7.7) alone or in the presence of 1 nM, 10 nM, 0.1 μM, 1 μM, and 10 μM of N-[2-(5-methoxy-indol-3-yl)-ethyl]-commenamide, N-[2-(5-methoxy-indol-3-yl)-ethyl]-coumalylamide, N-[2-(5-methoxy-indol-3-yl)-ethyl]-comanilamide, N-[2-(5-methoxy-indol-3-yl)-ethyl]-2-methoxy-commenamide or N-[2-(5-methoxy-indol-3-yl)-ethyl]-chelidonamide for 60 minutes. The binding reaction was terminated and washed with 4 ml ice-cold 50 mM Tris-HCl buffer by vacuum filtration. Membranes were then collected, and the filters containing the bound ligands were assayed for the amount of radioactivity in a b-counter. Non-specific binding was evaluated using a reaction with 10 μM metergoline (5-HT1A), 1 μM mianserin (5-HT2A and 5-HT2c) or 10 μM serotonin (5-HT1B, 5-HT2B, 5-HT4, 5-HT6 and 5-HT7).

5-HT2C receptor = target: T2, 5-HT2C receptor (Homo sapiens, UniProt P28335); experiment: Serotonin receptor binding, [3H] Mesulergine, CHO-K1 membranes
T2 construct: expressed in transfected cells; host or cells: CHO-K1
T2 sequence (P28335 33-458): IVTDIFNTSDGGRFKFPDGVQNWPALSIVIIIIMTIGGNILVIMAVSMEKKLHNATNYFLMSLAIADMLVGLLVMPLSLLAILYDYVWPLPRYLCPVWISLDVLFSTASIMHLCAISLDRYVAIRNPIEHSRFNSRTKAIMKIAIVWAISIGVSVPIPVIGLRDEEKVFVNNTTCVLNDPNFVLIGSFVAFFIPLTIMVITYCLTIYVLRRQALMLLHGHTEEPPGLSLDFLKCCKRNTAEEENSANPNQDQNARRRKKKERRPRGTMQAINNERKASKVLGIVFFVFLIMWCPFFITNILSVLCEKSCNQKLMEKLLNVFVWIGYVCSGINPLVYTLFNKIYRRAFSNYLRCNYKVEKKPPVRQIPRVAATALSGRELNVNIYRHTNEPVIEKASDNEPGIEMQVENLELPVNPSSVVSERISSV
Procedure: as §1

mice = experiment: Rotarod assay, interaction with diazepam; assay type: in vivo; conditions: for Incidence of performance (rotarod): 15 rpm; for effect on rotarod performance: compound alone i.p., 15 rpm rotation speed;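 as to Incidence of performance (rotarod): Success means running more than 120 min on the rod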
Procedure: The incidences of animals running more than […] on the rotating rod were noted, and significances were calculated by non-parametric x^2 test. 8 mice/group were used.
The rotarod apparatus is divided into five test zones, so that up to five mice may be tested at the same time. The rod has been specially machined to provide a suitable grip for the animal. The diameter of the rod is 3.5 cm. The rotation speed was 15 rpm. When the animal falls off the rotating rod, it presses a button to record automatically the time spent on the rod. On the day before the experiment the mice were trained to run on the rod rotating with 15 rpm. Diazepam was administered orally 60 min before the rotarod assay, test substances were administered intraperitoneally 15 min before testing.

PC12 cells = experiment: Glutamate-induced loss of cell viability in PC12 cells (MTT); assay type: cell-based
Procedure: For the cell viability assays, 24 h after seeding in 96-well plates, the cultures were pretreated with N-[2-(5-methoxy-indol-3-yl)-ethyl]-comanilamide (100 pm, 1 nM, 10 nM, 100 nM, 1 uM and 10 uM) or melatonin (1 uM) for 0 h before exposure to 4 mM glutamate. After 24 h incubation, cellular viability was evaluated by MTT assay.
PC12 cell viability was determined by the conventional 3-(4,5-dimethylthiazol-2-yl)-2,5-diphenyltetrazolium bromide (MTT) assay. PC12 cells were treated with MTT solution (0.5 mg/ml) and were then incubated at 37° C. for 4 hrs. The medium was removed and 150 μl DMSO/well was added to dissolve formazan. The absorbance at 570 nm was recorded using an enzyme-linked immunosorbent assay reader and the percentage of cell growth inhibition was calculated as follows: Cell viability (%)=A570 (treatment)/A570 (control)×100.

C57BL/6 mice = experiment: MPTP mouse model of Parkinson's disease, pole test; assay type: in vivo
From the text: Three-month-old male C57BL/6 mice were housed in groups of 5 animals per cage (50 cm×25 cm×20 cm) in a temperature- and humidity-controlled environment with ad libitum access to food and water. Animals were maintained on a 12 hr light/dark schedule, with lights on at 7 A.M.
Six groups of mice were used: (1) the control mice treated with saline and vehicle (n=10), (2) the N-[2-(5-methoxy-indol-3-yl)-ethyl]-comanilamide control mice treated with saline and N-[2-(5-methoxy-indol-3-yl)-ethyl]-comanilamide at 100 or 200 mg/kg (n=5, respectively), (3) the MPTP mice treated with MPTP and vehicle (n=10) and (4) the N-[2-(5-methoxy-indol-3-yl)-ethyl]-comanilamide-treated MPTP mice treated with MPTP and N-[2-(5-methoxy-indol-3-yl)-ethyl]-comanilamide at 100 or 200 mg/kg (n=10, respectively). Mice received daily (i.p.) injections of saline or MPTP (30 mg/kg/day) dissolved in physiological saline for five consecutive days to induce Parkinsonism. N-[2-(5-methoxy-indol-3-yl)-ethyl]-comanilamide or vehicle was administered (i.p.) once per day for 17 days, starting on the first day of MPTP injections. Open field test, pole test, forepaw stride length test and traction test were conducted on day 14, 15, 16 and 17 after the first injections of MPTP, respectively.
In the pole test, the mouse was placed head upward on the top of a vertical wooden rough-surfaced pole (diameter: 1 cm, height: 50 cm), then allowed to descend five times. Each mouse was habituated to the apparatus two sessions (one session per day) before the day of first MPTP injections. The total time until the mouse reached the floor with its four paws was recorded (T-total) as well as the time needed for the mouse to turn completely head downward (T-turn). For each session of five descents, the best performance was kept for the T-turn and T-total. If the mouse was unable to turn completely downwards, fell or slipped down, the default value of 20 s was taken into account.

[1] = Diazepam 1.5 mg/kg p.o. + compound 5 mg/kg i.p.
[2] = Diazepam 1.5 mg/kg p.o. + compound 20 mg/kg i.p.
[3] = Diazepam 1.5 mg/kg p.o. + compound 50 mg/kg i.p.
[4] = Vehicle p.o. + compound 5 mg/kg i.p.
[5] = Vehicle p.o. + compound 20 mg/kg i.p.
[6] = Vehicle p.o. + compound 50 mg/kg i.p.

T1 sequence (P28223 whole entry): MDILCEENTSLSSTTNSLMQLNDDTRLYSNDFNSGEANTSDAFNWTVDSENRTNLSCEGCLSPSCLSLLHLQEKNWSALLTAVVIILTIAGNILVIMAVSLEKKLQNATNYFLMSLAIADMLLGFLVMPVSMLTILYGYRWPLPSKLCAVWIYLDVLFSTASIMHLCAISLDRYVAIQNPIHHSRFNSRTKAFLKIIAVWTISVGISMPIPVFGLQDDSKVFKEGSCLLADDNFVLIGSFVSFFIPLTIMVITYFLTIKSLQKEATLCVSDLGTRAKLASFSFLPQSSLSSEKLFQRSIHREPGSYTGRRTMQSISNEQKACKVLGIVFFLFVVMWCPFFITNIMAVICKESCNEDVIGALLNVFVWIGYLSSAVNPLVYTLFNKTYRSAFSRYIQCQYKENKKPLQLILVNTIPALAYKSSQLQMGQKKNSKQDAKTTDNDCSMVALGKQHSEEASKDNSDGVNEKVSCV

Structure (SMILES) | IC50 (5-HT2A receptor) | Ki (5-HT2A receptor) | IC50 (5-HT2C receptor; read-out: 5-HT2C IC50) | Ki (5-HT2C receptor; read-out: 5-HT2C KI) | Incidence of performance (rotarod) (mice; [1]) | Incidence of performance (rotarod) (mice; [2]) | Incidence of performance (rotarod) (mice; [3]) | Incidence of performance (rotarod) (mice; [4]) | Incidence of performance (rotarod) (mice; [5]) | Incidence of performance (rotarod) (mice; [6]) | effect on rotarod performance (mice) | effect on cell viability without glutamate (PC12 cells; 10 uM, without glutamate) | effect on glutamate-induced loss of cell viability (PC12 cells; 100 pm to 10 uM, all doses, 4 mM glutamate, 24 h, MTT) | T-turn, pole test, vs MPTP mice (C57BL/6 mice; 100 mg/kg i.p., p<0.05) | T-turn, pole test, vs MPTP mice (C57BL/6 mice; 200 mg/kg i.p., p>0.05) | T-turn, pole test, vs control mice (C57BL/6 mice; saline mice, 100 or 200 mg/kg i.p., both p>0.05) | IC50 (5-HT2C receptor) | Ki (5-HT2C receptor)
COc1ccc2[nH]cc(CCNC(=O)c3cc(=O)cc(C(=O)O)o3)c2c1 [N-[2-5-methoxy-indol-3-yl)-ethyl]-chelidonamide] | 7.5 µM | 2.14 µM | 11.2 µM | 5.8 µM | – | – | – | – | – | – | – | – | – | – | – | – | – | –
COc1ccc2[nH]cc(CCNC(=O)c3cc(=O)cco3)c2c1 [N-[2-(5-methoxy-indol-3-yl)-ethyl]-comanilamide] | – | – | – | – | 4/8* | 2/8*** | 1/8*** | 6/8 | 5/8 | 5/8 | dose dependently impaired the performance | had no effect on the cell viability | significantly attenuated glutamate-induced loss of cell viability | showed less level of the T-turn | no significant difference in the T-turn | no significant difference in the T-turn | – | –
COc1ccc2[nH]cc(CCNC(=O)c3cc(=O)c(O)co3)c2c1 [N-[2-(5-methoxy-indol-3-yl)-ethyl]-commenamide] | – | – | – | – | 5/8 | 3/8** | 1/8*** | 8/8 | 5/8 | 5/8 | dose dependently impaired the performance | – | – | – | – | – | 7.2 µM | 3.8 µM
